Laboratory results from PubChem BioAssay (NCI).
Values joined by “and” are separate entries in the source; they are usually repeats but may differ in a detail not shown here. Equal values may be shown once.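 Results reflect a 48-hour exposure of cells in 96-well plates to compound at five concentrations. Abbreviation: GI50, concentration required for 50% inhibition of growth. Definition used: TGI = concentration required for complete inhibition of growth.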 *1 amine or outer side, *2 acyl side, *3 side chain or, on linkers, in order; H or OH if unused. Where a SMILES comes first, the peptide text is derived from it. Bridges are numbered along the chain shown (N, C = ends). Roman numbers before positions name the chains, in order. [ ]: non-standard residue; d: D form. Actinocin(9to1) = Cc1c2oc3c(C)ccc(C(=O)[*:1])c3nc-2c(C(=O)[*:2])c(N)c1=O; NMeT = CN[CH](C(=O)O)[CH](C)O; Sar = CNCC(=O)O

Legend:
Test in all cases: growth of human tumour cells (NCI), 48 h
SN12C renal = test system: SN12C renal
SF-295 CNS = test system: SF-295 CNS
HOP-62 NSCLC = test system: HOP-62 NSCLC
KM12 colon = test system: KM12 colon
NCI/ADR-RES ovarian = test system: NCI/ADR-RES ovarian
T-47D breast = test system: T-47D breast
NCI-H23 lung = test system: NCI-H23 lung
KM20L2 colon = test system: KM20L2 colon
M19-MEL melanoma = test system: M19-MEL melanoma
DLD-1 colon = test system: DLD-1 colon

| Structure (SMILES) | GI50 (SN12C renal) [µM] | TGI (SN12C renal) | GI50 (SF-295 CNS) [µM] | TGI (SF-295 CNS) [µM] | GI50 (HOP-62 NSCLC) [µM] | TGI (HOP-62 NSCLC) [µM] | GI50 (KM12 colon) [µM] | TGI (KM12 colon) [µM] | GI50 (NCI/ADR-RES ovarian) | TGI (NCI/ADR-RES ovarian) [µM] | GI50 (T-47D breast) | TGI (T-47D breast) [µM] | GI50 (NCI-H23 lung) [µM] | TGI (NCI-H23 lung) | TGI (KM20L2 colon) [µM] | TGI (M19-MEL melanoma) [µM] | TGI (DLD-1 colon) [µM] |
| --- | --- | --- | --- | --- | --- | --- | --- | --- | --- | --- | --- | --- | --- | --- | --- | --- | --- |
| COc1ccc(NC([Se])=NC23CC4CC(CC(C4)C2)C3)cc1 | 1.61 | 8.81 µM | 1.52 | 4.15 | 2.24 | 9.49 | 1.85 | 5.54 | 0.711 µM | 8.88 | 1.88 µM | 4.89 | 0.456 | 3 µM | – | – | – |
| O=C1C=CC(=O)C12CCc1ccccc12 | – | > 100 µM | – | > 31.6 | – | > 100 | – | > 100 | – | – | – | – | – | > 100 µM | > 100 | > 100 | > 100 |
| O=C(CCc1nnc2s/c(=C\c3ccc(Cl)c(Cl)c3)c(=O)n12)Nc1ccc(Cl)c(Cl)c1 | – | > 100 µM | – | > 100 | – | > 100 | – | > 100 | – | – | – | – | – | > 100 µM | > 100 | > 100 | – |
| Cn1nc(-c2ccccc2)c(C(=O)/C=C/c2ccc(Cl)cc2)c(N2CCCCC2)c1=O | – | 20.5 µM | – | 2.14 | – | 5.68 | – | – | – | – | – | – | – | 5.48 µM | 6.46 | 5.07 | 7.08 |
| CCOc1ccc(N=Cc2ccc3cc(C)ccc3n2)cc1 | – | > 100 µM | – | > 100 | – | > 100 | – | > 100 | – | – | – | – | – | > 100 µM | > 100 | > 100 | > 100 |
| CC(=O)c1cccc(C)c1C(=O)O | – | > 100 µM | – | > 100 | – | > 100 | – | > 100 | – | – | – | – | – | > 100 µM | > 100 | > 100 | > 100 |
| O=C1CC(=O)N(C(=O)c2nn(-c3ccc(Cl)cc3)cc2O)N1 | 0.494 | > 100 µM | 0.17 | > 100 | 0.5 | > 100 | 1.03 | > 100 | 1.16 µM | > 100 | 0.431 µM | > 71.6 | 0.493 | > 100 µM | – | – | – |
| O=C1O[C@H](c2ccccc2)[C@@H]2CC3(CCN12)OCCO3 | – | > 100 µM | – | > 100 | – | > 100 | – | > 100 | – | – | – | – | – | > 100 µM | > 100 | – | – |
| CCN(CC)CCCNC(=O)C1COc2cc(-c3cc(=O)c4ccccc4o3)ccc2O1 (centres undefined) | – | > 100 µM | – | > 100 | – | > 100 | – | – | – | – | – | – | – | > 100 µM | > 100 | 76.4 | > 100 |
| NC1CCC(Nc2nc(NCc3ccc(-c4ccccc4O)nc3)c3ncn(C4CCCC4)c3n2)CC1 (centres undefined) | 0.0149 | 1.38 µM | 0.0295 | 0.219 | 0.0157 | 0.0666 | 0.018 | 0.429 | 0.135 µM | 2.18 | 0.0252 µM | 0.0791 | 0.0214 | 0.0664 µM | – | – | – |
| NC(=O)CCC(Nc1c2ccccc2nc2ccccc12)C(=O)O (centres undefined) | – | > 100 µM | – | > 100 | – | – | – | > 100 | – | – | – | – | – | > 100 µM | > 100 | > 100 | > 100 |
| CS(=O)(=O)CCNCc1ccc(-c2ccc3ncnc(Nc4ccc(OCc5ccccc5)c(Br)c4)c3c2)o1 | 11.9 | > 25 µM | 5.26 | 12.8 | 11.2 | > 25 | 9.06 | > 25 | 6.87 µM | > 25 | 0.821 µM | 17.4 | 10.5 | > 25 µM | – | – | – |
| COc1cc(OC)c(SSCCCCS(=O)O)c(OC)c1 | – | 33.6 µM | – | 26.8 | – | 67 | – | 29.4 | – | – | – | – | – | 30.5 µM | 37.9 | 22.9 | 41.1 |
| CC1=C(C(=O)Nc2cc(=O)n(C)c(=O)n2C)C(c2cccc([N+](=O)[O-])c2)C(C(=O)Nc2cc(=O)n(C)c(=O)n2C)=C(C)N1 | – | > 100 µM | – | > 100 | – | > 100 | – | > 100 | – | – | – | – | – | > 100 µM | > 100 | > 100 | > 100 |
| COc1ccc2c3c([nH]c2c1[N+](=O)[O-])C(C)N(Cc1ccc([N+](=O)[O-])cc1)CC3 (centres undefined) | – | 60.7 µM | – | 43 | – | – | – | 49.6 | – | – | – | – | – | 44.5 µM | 45 | – | – |
| Cc1c2oc3c(C)ccc(C(=O)NC4C(=O)NC(C(C)C)C(=O)N5CCCC5C(=O)N(C)CC(=O)N(C)C(C(C)O)C(=O)OC4C)c3nc-2c(C(=O)NC2C(=O)NC(C(C)C)C(=O)N3CCCC3C(=O)N(C)CC(=O)N(C)C(C(C)O)C(=O)OC2C)c(N)c1=O (centres undefined) (I: TVP[Sar][NMeT] / II: TVP[Sar][NMeT]; ester I:1-I:C, II:1-II:C; linker I:N-II:N via Actinocin(9to1); configuration not given here) | – | 42.8 µM and > 1 µM | – | > 100 | – | > 1 | – | > 100 | 25.9 µM and > 1 µM | > 100 | 2.67 µM and > 1 µM | > 100 | – | 18.3 µM and > 1 µM | – | – | – |
| O=C(O)CCCSc1ccccc1 | – | > 100 µM | – | > 100 | – | > 100 | – | > 100 | – | > 100 | – | > 100 | – | > 100 µM | – | – | – |
| Cc1cccc(C)c1CO | – | > 100 µM | – | > 100 | – | > 100 | – | > 100 | – | – | – | – | – | > 100 µM | > 100 | > 100 | > 100 |
| CC(=O)CC(N)=O | – | > 100 µM | – | > 100 | – | > 100 | – | > 100 | – | – | – | – | – | > 100 µM | > 100 | > 100 | > 100 |
| COC(=O)C1=C(O)c2cc(-c3ccccc3)c(-c3ccccc3)c(C#N)c2NC(=O)C1 | – | > 100 µM | – | 42.1 | – | 96.8 | – | > 100 | – | – | – | – | – | > 100 µM | > 100 | > 100 | > 100 |
| N#Cc1ccc2c(c1)C(=O)c1c-2n(CCCCl)c(=O)c2cc([N+](=O)[O-])ccc12 | 5.93 | > 100 µM | 4.21 | > 100 | 2.55 | 14 | > 100 | > 100 | 6 µM | > 100 | 2.65 µM | > 100 | 4.81 | 17.6 µM | – | – | – |
